PubChem BioAssay (NCI)
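Test compounds were applied to cells in 96-well plates for 48 hours at 5 doses. TGI denotes the concentration required for complete inhibition of growth.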

Legend:
Assay in all cases: growth of human tumour cells (NCI), 48 h
KM12 colon = system: KM12 colon
ACHN renal = system: ACHN renal
LOX IMVI melanoma = system: LOX IMVI melanoma
MALME-3M melanoma = system: MALME-3M melanoma
MDA-N = system: MDA-N
SF-295 CNS = system: SF-295 CNS
HL-60(TB) leukemia = system: HL-60(TB) leukemia
BT-549 breast = system: BT-549 breast
SK-OV-3 ovarian = system: SK-OV-3 ovarian
OVCAR-3 ovarian = system: OVCAR-3 ovarian

SMILES | TGI (KM12 colon) [µM] | TGI (ACHN renal) [µM] | TGI (LOX IMVI melanoma) [µM] | TGI (MALME-3M melanoma) [µM] | TGI (MDA-N) [µM] | TGI (SF-295 CNS) [µM] | TGI (HL-60(TB) leukemia) [µM] | TGI (BT-549 breast) [µM] | TGI (SK-OV-3 ovarian) [µM] | TGI (OVCAR-3 ovarian) [µM]
COc1cccc2c1C(=O)c1ccc3cc(CO)cc(O)c3c1C2=O | 6.14 | 3.7 | 5.96 | 0.202 | 0.352 | 7.44 | 0.461 | 6.31 | 8.61 | 0.497
CSCCCNC(=O)c1csc([C@@H](CSC)NC(=O)CCNC(=O)[C@@H](NC(=O)OCC(Br)(Br)Br)C(C)O)n1 (stereo not given in full) | > 100 | > 100 | > 100 | > 100 | > 100 | > 100 | > 100 | > 100 | > 100 | > 100
C/C(=N/NC(=S)N(Cc1ccccn1)Cc1ccccn1)c1cnccn1 | 19.7 | 2.39 | 0.447 | 7.53 | 31.2 | 9.37 | > 68.2 | 12.7 | 4.27 | 12.6
NNC(=O)CCCCCCCC(=O)O | > 100 | > 100 | > 100 | > 100 | > 100 | > 100 | > 100 | > 100 | > 100 | > 100
COc1ccc(C2c3cc4c(cc3OC(N3CCOCC3)C2C)OCO4)c(OC)c1 (stereo not given) | 34 | 93.8 | 23.8 | 36.6 | 5.25 | 16.3 | > 31.4 | 87.7 | 52.6 | 13.9
O=C1NC(N/N=C/C(O)C(O)C(O)C(O)CO)=N/C1=C\c1cccs1 (stereo not given) | > 100 | > 100 | > 100 | > 100 | > 100 | > 100 | > 100 | > 100 | > 100 | > 100
CCOC(=O)CC[C@@H](NC(=O)c1ccc(NCc2ccc3nc(OC)c(OC)nc3c2)cc1)C(=O)OCC | > 100 | 58.2 | > 100 | 39 | > 85.2 | > 100 | > 100 | > 100 | > 100 | 38.3
CC1(C)OC2CN(C(=O)OCc3ccccc3)C(CO)C2O1 (stereo not given) | > 100 | > 100 | > 100 | > 100 | > 100 | > 100 | > 100 | > 100 | > 100 | > 100
O=[N+]([O-])/C(C(Cl)=C(Cl)Cl)=C(/Sc1ccccc1)N1CCOCC1 | 32.7 | 15 | 3.04 | 18.2 | 14.6 | 36.4 | 4.51 | 15 | 79.8 | 8.87
C=CC1(CBr)CCC(C(C)(C)Br)O1 (stereo not given) | 26.1 | 30.2 | 4.34 | 27.8 | 22.7 | 24.8 | 0.893 | 30.4 | 29 | 22.6
C=C1CC(CNc2cc(Cl)nc(N)n2)C1 | > 100 | > 100 | > 100 | > 100 | > 100 | > 100 | > 100 | > 100 | > 100 | > 100
CC1(C)SC2C(NC(=O)Cc3ccccc3)C(=O)N2C1C(=O)O (stereo not given) | > 100 | > 100 | > 100 | > 100 | > 100 | > 100 | > 100 | > 100 | > 100 | > 100
COc1ncc(C#CC(=O)c2ccccc2OC)c(OC)n1 | 18.4 | 3.27 | 0.794 | 3.36 | 3.41 | 39.7 | 4.63 | 5.21 | > 60.4 | 8.27
CC1(C)OC[C@@]2([C@@H]3CC[C@@H](C3)C2(C)C)N1O | > 100 | > 100 | > 100 | > 100 | > 100 | > 100 | > 100 | > 100 | > 100 | > 100
CC(=O)NC1CCC(NC(=O)OC(C)(C)C)C(NC(=O)OC(C)(C)C)C1 (stereo not given) | > 100 | > 100 | > 100 | > 100 | > 100 | > 100 | > 100 | > 100 | > 100 | > 100
COC(=O)CC1(O)C(C=C(C)C)C(C(=O)OC)C(=O)C(C(=O)OC)C1C(=O)OC (stereo not given) | > 100 | > 100 | > 100 | > 100 | > 100 | > 100 | > 100 | > 100 | > 100 | > 100
CCC(/C=C/c1ccccc1)=N\NC(=S)N/N=C(/C=C/c1ccccc1)CC | > 100 | > 100 | > 100 | > 100 | > 100 | > 100 | 62.7 | > 100 | > 100 | > 100
